This is an account of results in US20110098325A1, “PYRIDINE BENZAMIDES AND PYRAZINE BENZAMIDES USED AS PKD INHIBITORS” (CANCER RESEARCH TECHNOLOGY LIMITED, priority 2006, published 2011).

The assay concerns the target T1, Human full length PKD1 (Homo sapiens, UniProt Q15139).
T1 construct: Human full length PKD1 at ˜100 μg/mL purchased from Upstate Ltd; purchased Upstate Ltd 14-508
T1 sequence (Q15139 1-912): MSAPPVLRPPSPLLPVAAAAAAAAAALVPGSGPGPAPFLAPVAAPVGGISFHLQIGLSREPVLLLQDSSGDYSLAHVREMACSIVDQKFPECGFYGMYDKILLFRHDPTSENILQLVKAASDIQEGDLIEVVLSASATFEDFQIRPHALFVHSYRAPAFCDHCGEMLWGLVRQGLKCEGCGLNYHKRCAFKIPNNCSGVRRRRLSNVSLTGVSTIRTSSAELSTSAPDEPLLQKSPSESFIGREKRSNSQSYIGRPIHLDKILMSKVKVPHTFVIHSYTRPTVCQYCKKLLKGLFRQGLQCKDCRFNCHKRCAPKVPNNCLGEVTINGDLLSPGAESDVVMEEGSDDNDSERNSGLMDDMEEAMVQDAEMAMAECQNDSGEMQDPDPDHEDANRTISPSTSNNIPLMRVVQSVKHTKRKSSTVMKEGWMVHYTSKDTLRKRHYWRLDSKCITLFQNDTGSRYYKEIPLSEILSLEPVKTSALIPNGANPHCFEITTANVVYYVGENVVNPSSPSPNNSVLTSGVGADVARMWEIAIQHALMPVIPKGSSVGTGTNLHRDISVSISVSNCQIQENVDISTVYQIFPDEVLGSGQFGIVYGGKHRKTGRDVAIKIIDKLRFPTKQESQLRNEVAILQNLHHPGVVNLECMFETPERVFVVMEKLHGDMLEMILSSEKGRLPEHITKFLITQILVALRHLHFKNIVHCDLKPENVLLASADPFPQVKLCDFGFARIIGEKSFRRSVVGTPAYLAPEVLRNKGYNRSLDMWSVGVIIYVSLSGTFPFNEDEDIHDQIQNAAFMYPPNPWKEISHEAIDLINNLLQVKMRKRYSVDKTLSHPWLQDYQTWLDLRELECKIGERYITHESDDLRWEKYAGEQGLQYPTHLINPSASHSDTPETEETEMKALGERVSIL
As to the kind of experiment: PKD1 (Human Full Length) Enzyme Activity Assay (IMAP fluorescence polarisation). Type of assay: biochemical. Conditions: 10 μM ATP, 25 minutes, room temperature. How it is done:
Kinase Assay Reaction Buffer: This consisted of 0.22 μM filtered 25 mM HEPES and 2 mM MgCl2 pH 7.5.
Kinase Enzyme: Human full length PKD1 at ˜100 μg/mL purchased from Upstate Ltd (Product code 14-508) was obtained from aliquots stored at −70° C. It was prepared with a final concentration of 0.3 μg/mL by diluting 1:300 in Reaction Buffer (30 μL per 9 mL-5 mL per plate with an additional 4 mL dead volume) and vortexing prior to use.
Substrate: Fluorescein labelled glycogen synthase-derived peptide (FI)-KKLNRTLSVA (also known as MAPKAP K2 substrate) was obtained from Molecular Devices (Product code R7127). […]
The fluorescence polarisation of the substrate in each well was recorded using an analyst microplate reader (Molecular Devices) with a single read at Ex485 Em535 (Analyst settings: Z Height 5 mm, G Factor 0.95, Reads/well 1, Integration 100000 μs, Gain Sensitivity 2).
Percentage inhibition was calculated based on activity of the test sample minus the average values in the blank wells relative to the average values measured in control wells minus the average values in the blank wells.
IC50 values were calculated from 10 point dose sigmoid ‘dose-response’ curves using Xlfit software (IDBS inc, USA). […]
For orientation: In fluorescence polarisation assays a small probe gives low polarisation when free and higher when bound to something large.

Structures are written as SMILES.

In turn, `COc1cc(-c2cc(-c3cccc(C(=O)NCCN(C)C)c3)cnc2N)ccc1O` [Y-059, 3-[6-Amino-5-(4-hydroxy-3-methoxy-phenyl)-pyridin-3-yl]-N-(2-dimethylamino-ethyl)-benzamide] registered an IC50 of 6 nM. The same measure for `COc1cc(-c2nc(-c3cccc(C(=O)NCCN(C)C)c3)cnc2N)ccc1O` [X-017, 3-[5-Amino-6-(4-hydroxy-3-methoxy-phenyl)-pyrazin-2-yl]-N-(2-dimethylamino-ethyl)-benzamide]: 4 nM.

In general, IC50 refers to the concentration at which inhibition is half-maximal.
